Test [1] concerns the target recombinant human Mcl-1 (residues 171-327) / Bim interaction (Homo sapiens (Human), UniProt Q07820). Nature of the test: biochemical. Format: binding. The conditions noted are these: read-out: Mcl-1 HTRF IC50. (In general: TR-FRET usually uses a lanthanide donor and a delayed reading to cut background.)
The subject of test [2] is human multiple myeloma cell line, OPM-2. The test is described as follows: Cell viability assay (OPM-2 10 FBS), CellTiter-Glo. Format: cell-based. The gist of the method: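 OPM-2 cells at 3000 cells/well in RPMI 1640 with 10% FBS were exposed to serially diluted compounds for 16 h at 37 °C, 5% CO2.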
On the technique in general: Cellular ATP, detected with luciferase, serves as a proxy for viable cell number.

The mark [3] stands for this setting: TR-FRET, Mcl-1(171-327) / biotin-Bim (51-76).
Setting [4] is: Homo sapiens, OPM-2, 16 h, read-out: OPM-2 10% FBS IC50 IP, OPM-2 cells, 10% FBS, 16 h, CellTiter-Glo.
The mark [5] stands for this setting: read-out: OPM-2 10% FBS IC50 IP, OPM-2 cells, 10% FBS, 16 h, CellTiter-Glo.
Where [6] appears, read: 0.1 nM Mcl-1(171-327), 0.05 nM biotin-Bim (51-76).
[7] abbreviates: read-out: OPM-2 10% FBS IC50 IP, OPM-2 cells, 10% FBS, 16 h incubation.
[8] abbreviates: Homo sapiens, OPM-2, 16 h, read-out: OPM-2 10% FBS IC50 IP, OPM-2 cells, 10% FBS, 16 h incubation.

As a reminder, the IC50 is the midpoint of a concentration-inhibition curve.

Where two headings read alike, the source gives them in different places.

recombinant human Mcl-1 (residues 171-327) / Bim interaction, sequence (Q07820 171-327): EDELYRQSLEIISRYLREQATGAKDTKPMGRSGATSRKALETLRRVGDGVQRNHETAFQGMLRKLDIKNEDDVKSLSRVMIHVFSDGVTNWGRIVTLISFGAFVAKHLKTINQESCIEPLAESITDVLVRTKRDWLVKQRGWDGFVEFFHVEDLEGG

For the molecule `CC(C)[C@@]1(O)/C=C/C[C@H](C)[C@@H](C)S(=O)(=O)NC(=O)c2ccc3c(c2)N(C[C@@H]2CC[C@H]21)C[C@@]1(CCCc2cc(Cl)ccc21)CO3` [Example 100210, (1S,3′R,6′R,7′R,8′E,11′S,12′R)-6-chloro-7′-hydroxy-11′,12′-dimethyl-7′-(2-propanyl)-3,4-dihydro-2H,15′H-spiro[naphthalene-1,22′-[20]oxa[13]thia[1,14]diazatetracyclo [14.7.2.0~3,6~.0~19,24~]pentacosa[8,16,18,24]tetraen]-15′-one 13′,13′-dioxide], the IC50 in test [1] (setting [3]) came out at 3.47 nM; in test [2] (setting [4]), 3360 nM.
As to `C[C@@H]1[C@@H](C)C/C=C/[C@@](O)(C#CCN2CCCCC2)[C@@H]2CC[C@H]2CN2C[C@@]3(CCCc4cc(Cl)ccc43)COc3ccc(cc32)C(=O)NS1(=O)=O` [Example 100424, (1S,3′R,6′R,7′S,8′E,11′S,12′R)-6-chloro-7′-hydroxy-11′,12′-dimethyl-7′-(3-(1-piperidinyl)-1-propyn-1-yl)-3,4-dihydro-2H,15′H-spiro[naphthalene-1,22′-[20]oxa[13]thia[1,14]diazatetracyclo [14.7.2.0~3,6~.0~19,24~]pentacosa[8,16,18,24]tetraen]-15′-one 13′,13′-dioxide], the values for the IC50 in test [1] (setting [3]) and in test [2] (setting [5]) were 0.249 nM and 469 nM, respectively.
Consider `CO[C@]1(CN2CCN3CCC(F)(F)C[C@@H]3C2)/C=C/C[C@H](C)[C@@H](C)S(=O)(=O)NC(=O)c2ccc3c(c2)N(C[C@@H]2CC[C@H]21)C[C@@]1(CCCc2cc(Cl)ccc21)CO3` (single isomer, unassigned) [Example 298], for which the IC50 in test [1] (setting [6]) was 0.279 nM; in test [2] (setting [7]), 262 nM.
On to `C[C@@H]1[C@@H](C)C/C=C/[C@@](O)(c2cccnn2)[C@@H]2CC[C@H]2CN2C[C@@]3(CCCc4cc(Cl)ccc43)COc3ccc(cc32)C(=O)NS1(=O)=O` (single isomer, unassigned) [Example 100348], for which the IC50 worked out at 0.135 nM in test [1] (setting [3]) and 125 nM in test [2] (setting [4]).
As for `CO[C@@]1(CN2CCN(C3COC3)CC2)/C=C/[C@H](C)[C@H](C)CS(=O)(=O)NC(=O)c2ccc3c(c2)N(C[C@@H]2CC[C@H]21)C[C@@]1(CCCc2cc(Cl)ccc21)CO3` [Example 158, (1S,3′R,6′R,7′S,8′E,10′S,11′S)-6-chloro-7′-methoxy-10′,11′-dimethyl-7′-((4-(3-oxetanyl)-1-piperazinyl)methyl)-3,4-dihydro-2H,15′H-spiro[naphthalene-1,22′-[20]oxa[13]thia[1,14]diazatetracyclo [14.7.2.0~3,6~.0~19,24~]pentacosa[8,16,18,24]tetraen]-15′-one 13′,13′-dioxide], the figures for the IC50 in test [1] (setting [6]) and in test [2] (setting [8]) were 0.092 nM and 18 nM, respectively.
On to `CO[C@]1(CN2CCN3C(=O)[C@H](C)OC[C@@H]3C2)/C=C/C[C@H](C)[C@@H](C)S(=O)(=O)NC(=O)c2ccc3c(c2)N(C[C@@H]2CC[C@H]21)C[C@@]1(CCCc2cc(Cl)ccc21)CO3` [Example 142, (1S,3′R,6′R,7′R,8′E,11′S,12′R)-6-chloro-7′-methoxy-11′,12′-dimethyl-7′-(((3S,9aS)-3-methyl-4-oxohexahydropyrazino[2,1-c][1,4]oxazin-8(1H)-yl)methyl)-3,4-dihydro-2H,15′H-spiro[naphthalene-1,22′-[20]oxa[13]thia[1,14]diazatetracyclo [14.7.2.0~3,6~.0~19,24~]pentacosa[8,16,18,24]tetraen]-15′-one 13′,13′-dioxide], for which the figures for the concentration for half-maximal inhibition (IC50) in test [1] (setting [6]) and in test [2] (setting [8]) were 0.157 nM and 174 nM, respectively.
For `C[C@@H]1[C@@H](C)C/C=C/[C@@](O)(CC(=O)N(C)C)[C@@H]2CC[C@H]2CN2C[C@@]3(CCCc4cc(Cl)ccc43)COc3ccc(cc32)C(=O)NS1(=O)=O` [Example 100078, 2-((1S,3′R,6′R,7′S,8′E,11′S,12′R)-6-chloro-7′-hydroxy-11′,12′-dimethyl-13′,13′-dioxido-15′-oxo-3,4-dihydro-2H-spiro[naphthalene-1,22′-[20]oxa[13]thia[1,14]diazatetracyclo [14.7.2.0~3,6~.0~19,24~]pentacosa[8,16,18,24]tetraen]-7′-yl)-N,N-dimethylacetamide], the IC50 is 0.409 nM in test [1] (setting [3]) and 2720 nM in test [2] (setting [5]).
In the case of `COCC1(N(C)C(=O)C[C@]2(OC)/C=C/C[C@H](C)[C@@H](C)S(=O)(=O)NC(=O)c3ccc4c(c3)N(C[C@@H]3CC[C@H]32)C[C@@]2(CCCc3cc(Cl)ccc32)CO4)CC1` [Example 100396, 2-((1S,3′R,6′R,7′S,8′E,11′S,12′R)-6-chloro-7′-methoxy-11′,12′-dimethyl-13′,13′-dioxido-15′-oxo-3,4-dihydro-2H-spiro[naphthalene-1,22′-[20]oxa[13]thia[1,14]diazatetracyclo [14.7.2.0~3,6~.0~19,24~]pentacosa[8,16,18,24]tetraen]-7′-yl)-N-(1-(methoxymethyl)cyclopropyl)-N-methylacetamide], the IC50 in test [1] (setting [3]) came to 0.272 nM; in test [2] (setting [4]), 1470 nM.
Turning to `CCO[C@@]1(CN2CCC3(CC2)COC3)/C=C/C[C@H](C)[C@@H](C)S(=O)(=O)NC(=O)c2ccc3c(c2)N(C[C@@H]2CC[C@H]21)C[C@@]1(CCCc2cc(Cl)ccc21)CO3` [Example 109, (1S,3′R,6′R,7′S,8′E,11′S,12′R)-6-chloro-7′-ethoxy-11′,12′-dimethyl-7′-(2-oxa-7-azaspiro[3,5]non-7-ylmethyl)-3,4-dihydro-2H,15′H-spiro[naphthalene-1,22′-[20]oxa[13]thia[1,14]diazatetracyclo [14.7.2.0~3,6~.0~19,24~]pentacosa[8,16,18,24]tetraen]-15′-one 13′,13′-dioxide], the figures for the half-inhibitory concentration (IC50) in test [1] (setting [6]) and in test [2] (setting [8]) were 1.04 nM and 916 nM, respectively.
With `C[C@@H]1[C@@H](C)CCC[C@](O)(c2ncccn2)[C@@H]2CC[C@H]2CN2C[C@@]3(CCCc4cc(Cl)ccc43)COc3ccc(cc32)C(=O)NS1(=O)=O` (stereo in doubt) [Example 100270], the IC50 in test [1] was 0.776 nM; in test [2] (setting [4]) it was 3720 nM.
As to `CC(C)C[C@@]1(O)/C=C/C[C@H](C)[C@@H](C)S(=O)(=O)NC(=O)c2ccc3c(c2)N(C[C@@H]2CC[C@H]21)C[C@@]1(CCCc2cc(Cl)ccc21)CO3` [Example 100220, (1S,3′R,6′R,7′R,8′E,11′S,12′R)-6-chloro-7′-hydroxy-11′,12′-dimethyl-7′-(2-methylpropyl)-3,4-dihydro-2H,15′H-spiro[naphthalene-1,22′-[20]oxa[13]thia[1,14]diazatetracyclo [14.7.2.0~3,6~.0~19,24~]pentacosa[8,16,18,24]tetraen]-15′-one 13′,13′-dioxide], the IC50 in test [1] (setting [3]) was found to be 7.42 nM; in test [2] (setting [4]), 6840 nM.
Turning to `CO[C@@]1(CN2CCN3CCN(S(C)(=O)=O)C[C@@H]3C2)/C=C/C[C@H](C)[C@@H](C)S(=O)(=O)NC(=O)c2ccc3c(c2)N(C[C@@H]2CC[C@H]21)C[C@@]1(CCCc2cc(Cl)ccc21)CO3` (single isomer, unassigned) [Example 245], the results for the 50% inhibitory concentration (IC50) in test [1] (setting [6]) and in test [2] (setting [7]) were 0.12 nM and 58 nM, respectively.
For `CO[C@]1(c2ncccn2)/C=C/C[C@H](C)[C@@H](C)S(=O)(=O)NC(=O)c2ccc3c(c2)N(C[C@@H]2CC[C@H]21)C[C@@]1(CCCc2cc(Cl)ccc21)CO3` [Example 100278, (1S,3′R,6′R,7′R,8′E,11′S,12′R)-6-chloro-7′-methoxy-11′,12′-dimethyl-7′-(2-pyrimidinyl)-3,4-dihydro-2H,15′H-spiro[naphthalene-1,22′-[20]oxa[13]thia[1,14]diazatetracyclo [14.7.2.0~3,6~.0~19,24~]pentacosa[8,16,18,24]tetraen]-15′-one 13′,13′-dioxide], the concentration for half-maximal inhibition (IC50) was 0.458 nM in test [1] (setting [3]) and 333 nM in test [2] (setting [4]).
